Assay results: US5149779A, “Humoral hypercalcemic factor antagonists” (Merck & Co., Inc., priority 1990, dated 1992)

Molecular target: T1, human osteosarcoma cell line, B10 (Homo sapiens, UniProt Q03431)
T1 construct: analyzed in a human osteosarcoma cell line, B10; endogenous in cells; host or cells: human osteosarcoma cell line B10
T1 sequence (Q03431 27-593): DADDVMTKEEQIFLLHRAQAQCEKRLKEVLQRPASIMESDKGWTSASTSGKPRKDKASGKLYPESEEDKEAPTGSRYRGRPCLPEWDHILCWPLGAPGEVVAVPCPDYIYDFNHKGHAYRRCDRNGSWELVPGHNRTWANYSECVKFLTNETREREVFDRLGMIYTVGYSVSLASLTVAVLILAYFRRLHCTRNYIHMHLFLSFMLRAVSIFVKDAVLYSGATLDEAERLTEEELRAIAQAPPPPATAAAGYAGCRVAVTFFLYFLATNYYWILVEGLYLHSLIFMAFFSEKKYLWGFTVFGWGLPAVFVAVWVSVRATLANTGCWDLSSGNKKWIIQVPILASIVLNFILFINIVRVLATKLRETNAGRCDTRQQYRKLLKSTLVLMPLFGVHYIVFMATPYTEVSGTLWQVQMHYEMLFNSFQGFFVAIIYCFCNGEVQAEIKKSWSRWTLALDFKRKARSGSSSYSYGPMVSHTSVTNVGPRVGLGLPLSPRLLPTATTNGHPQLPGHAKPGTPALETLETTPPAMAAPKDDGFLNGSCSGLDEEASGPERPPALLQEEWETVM
Experiment: Human bone cell (B10) adenylate cyclase assay
Assay type: cell-based
Procedure: HCF analogues were analyzed in a human osteosarcoma cell line, B10, for the ability to inhibit cAMP stimulation by 1 nM [Nle^8,18,Tyr^34 ]bPTH(1-34)NH2 by the method described by R. J. Majeska et al., Endocrinol., 107: 1494 (1980).

Ki | Structure (SMILES)
3.2 ± 1 nM | CC[C@H](C)[C@H](NC(=O)[C@H](CC(C)C)NC(=O)[C@H](Cc1c[nH]cn1)NC(=O)[C@H](Cc1c[nH]cn1)NC(=O)[C@H](CC(C)C)NC(=O)[C@H](Cc1ccccc1)NC(=O)[C@H](Cc1ccccc1)NC(=O)[C@H](CCCNC(=N)N)NC(=O)[C@H](CCCNC(=N)N)NC(=O)[C@H](CCCNC(=N)N)NC(=O)[C@H](CC(C)C)NC(=O)[C@@H]1CC(=O)NCCCC[C@H](NC(=O)[C@@H](Cc2c[nH]c3ccccc23)NC(=O)[C@H](CC(C)C)NC(=O)[C@H](CC(=O)O)NC(=O)[C@H](Cc2c[nH]cn2)NC(=O)[C@H](CC(C)C)NC(=O)[C@@H](N)CC(C)C)C(=O)N[C@@H](CO)C(=O)N[C@@H]([C@@H](C)CC)C(=O)N[C@@H](CCC(N)=O)C(=O)N1)C(=O)N[C@@H](C)C(=O)N[C@@H](CCC(=O)O)C(=O)N[C@H](C(=O)N[C@@H](Cc1c[nH]cn1)C(=O)N[C@H](C(=O)N[C@@H](C)C(N)=O)[C@@H](C)O)[C@@H](C)CC
3.6 ± 0.8 nM | CC[C@H](C)[C@H](NC(=O)[C@H](CC(C)C)NC(=O)[C@H](Cc1c[nH]cn1)NC(=O)[C@H](Cc1c[nH]cn1)NC(=O)[C@H](CC(C)C)NC(=O)[C@H](Cc1ccccc1)NC(=O)[C@H](Cc1ccccc1)NC(=O)[C@H](CCCNC(=N)N)NC(=O)[C@H](CCCNC(=N)N)NC(=O)[C@H](CCCNC(=N)N)NC(=O)[C@H](CC(C)C)NC(=O)[C@@H]1CC(=O)NCCCC[C@H](NC(=O)[C@@H](Cc2c[nH]c3ccccc23)NC(=O)[C@H](CC(C)C)NC(=O)[C@H](CC(=O)O)NC(C)=O)C(=O)N[C@@H](CO)C(=O)N[C@@H]([C@@H](C)CC)C(=O)N[C@@H](CCC(N)=O)C(=O)N1)C(=O)N[C@@H](C)C(=O)N[C@@H](CCC(=O)O)C(=O)N[C@H](C(=O)N[C@@H](Cc1c[nH]cn1)C(=O)N[C@H](C(=O)N[C@@H](C)C(N)=O)[C@@H](C)O)[C@@H](C)CC
